Test results: patent US11464770B2, “Anticancer pharmaceutical composition” (NATIONAL CANCER CENTER, priority 2016, dated 2022)
Read-outs that look alike come from different tables or passages of the source.

Legend:
[1] = system: breast cancer cell lines (e.g. MDA-MB-231, SK-BR-3, MDA-MB-468, HCC1954); experiment: Cell based assay, cell viability (CellTiter-Glo), breast cancer cell lines
In short: (§1)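 Commercial tumour lines, detached with trypsin-EDTA, were seeded and incubated 24 h. They were then dosed to 0–2 μM final, grown 72 h, and assessed for viability using CellTiter-Glo.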

[2] = system: RT4: human urinary bladder transitional cell papilloma; experiment: Cell based assay, cytotoxicity in RT4 papilloma cells (selectivity); conditions: Homo sapiens, RT-4; RT4 cells
[3] = system: liver cancer cell lines; experiment: Cell based assay, cell viability (CellTiter-Glo), liver cancer cell lines; conditions: Homo sapiens, SK-HEP1; SK-HEP-1 cell line
In short: as §1

[4] = Breast cancer cell line MDA-MB-231-L/DOX, 72 hours, CellTiter-Glo, read-out: IC50, MDA-MB-231-L/DOX
[5] = Homo sapiens, Breast cancer cell line BT-20, 72 hours, CellTiter-Glo, read-out: IC50, BT-20
[6] = Homo sapiens, Breast cancer cell line HCC1395, 72 hours, CellTiter-Glo, read-out: IC50, HCC1395
[7] = Homo sapiens, Breast cancer cell line HCC1954, 72 hours, CellTiter-Glo, read-out: IC50, HCC1954
[8] = Homo sapiens, Breast cancer cell line JIMT-1, 72 hours, CellTiter-Glo, read-out: IC50, JIMT-1
[9] = Homo sapiens, Breast cancer cell line MCF7, 72 hours, CellTiter-Glo, read-out: IC50, MCF7
[10] = Homo sapiens, Breast cancer cell line MDA-MB-231, 72 hours, CellTiter-Glo, read-out: IC50, MDA-MB-231
[11] = Homo sapiens, Breast cancer cell line MDA-MB-468, 72 hours, CellTiter-Glo, read-out: IC50, MDA-MB-468
[12] = Homo sapiens, Breast cancer cell line SK-BR-3, 72 hours, CellTiter-Glo, read-out: IC50, SK-BR-3
[13] = Homo sapiens, BT-20 cells, 72 hours treatment, CellTiter-Glo cell viability, read-out: IC50, Breast cancer cell line BT-20
[14] = Homo sapiens, HCC1395 cells, 72 hours treatment, CellTiter-Glo cell viability, read-out: IC50, Breast cancer cell line HCC1395
[15] = Homo sapiens, HCC1954 cells, 72 hours treatment, CellTiter-Glo cell viability, read-out: IC50, Breast cancer cell line HCC1954
[16] = Homo sapiens, JIMT-1 cells, 72 hours treatment, CellTiter-Glo cell viability, read-out: IC50, Breast cancer cell line JIMT-1
[17] = Homo sapiens, MCF7 cells, 72 hours treatment, CellTiter-Glo cell viability, read-out: IC50, Breast cancer cell line MCF7
[18] = Homo sapiens, MDA-MB-231 cells, 72 hours treatment, CellTiter-Glo cell viability, read-out: IC50, Breast cancer cell line MDA-MB-231
[19] = Homo sapiens, MDA-MB-468 cells, 72 hours treatment, CellTiter-Glo cell viability, read-out: IC50, Breast cancer cell line MDA-MB-468
[20] = Homo sapiens, SK-BR-3 cells, 72 hours treatment, CellTiter-Glo cell viability, read-out: IC50, Breast cancer cell line SK-BR-3
[21] = MDA-MB-231-L/DOX cells, 72 hours treatment, CellTiter-Glo cell viability, read-out: IC50, Breast cancer cell line MDA-MB-231-L/DOX

| SMILES | IC50 [1, 4] | IC50 [1, 5] | IC50 [1, 6] | IC50 [1, 7] | IC50 [1, 8] | IC50 [1, 9] | IC50 [1, 10] | IC50 [1, 11] | IC50 [1, 12] | IC50 [3] | IC50 [1, 13] | IC50 [1, 14] | IC50 [1, 15] | IC50 [1, 16] | IC50 [1, 17] | IC50 [1, 18] | IC50 [1, 19] | IC50 [1, 20] | IC50 [1, 21] | IC50 [2] |
| --- | --- | --- | --- | --- | --- | --- | --- | --- | --- | --- | --- | --- | --- | --- | --- | --- | --- | --- | --- | --- |
| COc1cc(S(F)(F)(F)(F)F)ccc1C[S+]([O-])c1[nH]c2c(Br)ccc(Cl)c2c(=O)c1C(C)=O (centres unmarked) [Compound 75, 3-acetyl-8-bromo-5-chloro-2-((2-methoxy-4-(pentafluoro--sulfanyl)benzyl)sulfinyl)quinolin-4(1H)-one] | > 2000 nM | > 2000 nM | > 2000 nM | > 2000 nM | > 2000 nM | > 2000 nM | 1160 nM | > 2000 nM | 1700 nM | 1030 nM |  |  |  |  |  |  |  |  |  | > 10000 nM |
| CC(=O)c1c([S+]([O-])Cc2cc(F)cc(S(F)(F)(F)(F)F)c2)[nH]c2c(Br)ccc(Cl)c2c1=O (centres unmarked) [Compound 76, 3-acetyl-8-bromo-5-chloro-2-((3-fluoro-5-(pentafluoro--sulfanyl)benzyl)sulfinyl)quinolin-4(1H)-one] | > 2000 nM | > 2000 nM | > 10000 nM | > 2000 nM | > 10000 nM | > 2000 nM | > 2000 nM | > 2000 nM | 1720 nM | 1230 nM |  |  |  |  |  |  |  |  |  | > 10000 nM |
| Cc1cc(C[S+]([O-])c2[nH]c3c(Cl)ccc(Cl)c3c(=O)c2C(=O)C(C)C)no1 (centres unmarked) [Compound 86, 5,8-dichloro-3-isobutyryl-2-(((5-methylisoxazol-3-yl)methyl)sulfinyl)quinolin-4(1H)-one] |  |  |  |  |  |  |  |  |  | 1000 nM | > 2000 nM | > 10000 nM | 500 nM | > 10000 nM | 1470 nM | 1580 nM | 580 nM | 580 nM | 1110 nM | > 10000 nM |
| COC(=O)c1ccc(C[S+]([O-])c2[nH]c3c(Cl)ccc(Cl)c3c(=O)c2C(C)=O)o1 (centres unmarked) [Compound 89, methyl 5-(((3-acetyl-5,8-dichloro-4-oxo-1,4-dihydroquinolin-2-yl)sulfinyl)methyl)furan-2-carboxylate] |  |  |  |  |  |  |  |  |  | 1590 nM | > 2000 nM | > 10000 nM | 1340 nM | > 10000 nM | > 2000 nM | > 2000 nM | 1360 nM | 1360 nM | > 2000 nM | > 10000 nM |
| Cc1cc(C[S+]([O-])c2[nH]c3c(Br)ccc(Cl)c3c(=O)c2C(=O)C(C)C)no1 (centres unmarked) [Compound 95, 8-bromo-5-chloro-3-isobutyryl-2-(((5-methylisoxazol-3-yl)methyl)sulfinyl)quinolin-4(1H)-one] |  |  |  |  |  |  |  |  |  | 940 nM | 1870 nM | > 10000 nM | 480 nM | > 2000 nM | 1290 nM | 1410 nM | 470 nM | 470 nM | 1030 nM | > 10000 nM |

Now from value to compound, other results behind:

| IC50 [1, 4] | IC50 [1, 5] | IC50 [1, 6] | IC50 [1, 7] | IC50 [1, 8] | IC50 [1, 9] | IC50 [1, 10] | IC50 [1, 11] | IC50 [1, 12] | IC50 [3] | IC50 [1, 13] | IC50 [1, 14] | IC50 [1, 15] | IC50 [1, 16] | IC50 [1, 17] | IC50 [1, 18] | IC50 [1, 19] | IC50 [1, 20] | IC50 [1, 21] | SMILES | IC50 [2] |
| --- | --- | --- | --- | --- | --- | --- | --- | --- | --- | --- | --- | --- | --- | --- | --- | --- | --- | --- | --- | --- |
| > 2000 nM | > 2000 nM | > 2000 nM | > 2000 nM | > 2000 nM | > 2000 nM | 1380 nM | > 2000 nM | 850 nM | 730 nM |  |  |  |  |  |  |  |  |  | CC(=O)c1c([S+]([O-])Cc2ccc(C(F)(F)F)o2)[nH]c2c(Br)ccc(Cl)c2c1=O (centres unmarked) [Compound 72, 3-acetyl-8-bromo-5-chloro-2-(((5-(trifluoromethyl)furan-2-yl)methyl)sulfinyl)quinolin-4(1H)-one] | > 10000 nM |
| > 2000 nM | > 2000 nM | > 10000 nM | > 2000 nM | > 10000 nM | > 2000 nM | > 2000 nM | > 2000 nM | 1200 nM | 1420 nM |  |  |  |  |  |  |  |  |  | CC(=O)c1c([S+]([O-])Cc2ccc(C#N)cc2)[nH]c2c(Br)ccc(Cl)c2c1=O (centres unmarked) [Compound 73, 4-(((3-acetyl-8-bromo-5-chloro-4-oxo-1,4-dihydroquinolin-2-yl)sulfinyl)methyl)benzonitrile] | > 10000 nM |
| > 2000 nM | > 2000 nM | > 10000 nM | > 2000 nM | > 10000 nM | > 2000 nM | > 2000 nM | > 2000 nM | 1060 nM | 880 nM |  |  |  |  |  |  |  |  |  | CC(=O)c1c([S+]([O-])Cc2c(F)cccc2Cl)[nH]c2c(Br)ccc(Cl)c2c1=O (centres unmarked) [Compound 74, 3-acetyl-8-bromo-5-chloro-2-((2-chloro-6-fluorobenzyl)sulfinyl)quinolin-4(1H)-one] | > 10000 nM |
|  |  |  |  |  |  |  |  |  | 1510 nM | > 2000 nM | > 10000 nM | 1450 nM | > 10000 nM | > 2000 nM | 1950 nM | 1760 nM | 1210 nM | > 2000 nM | CC(=O)c1c([S+]([O-])Cc2ccc(I)cc2)[nH]c2c(Cl)ccc(Cl)c2c1=O (centres unmarked) [Compound 83, 3-acetyl-5,8-dichloro-2-((4-iodobenzyl)sulfinyl)quinolin-4(1H)-one] | > 10000 nM |
|  |  |  |  |  |  |  |  |  | 1070 nM | > 2000 nM | > 10000 nM | 1120 nM | > 10000 nM | > 2000 nM | 1600 nM | 1040 nM | 760 nM | > 2000 nM | CC(=O)c1c([S+]([O-])Cc2cccnc2)[nH]c2c(Br)ccc(Cl)c2c1=O (centres unmarked) [Compound 84, 3-acetyl-8-bromo-5-chloro-2-((pyridin-3-ylmethyl)sulfinyl)quinolin-4(1H)-one] | > 10000 nM |
